Source: patent US11873299B1, “7-(4-((5-(4-chlorobenzylideneamino)-2-thioxo-1,3,4-thiadiazol-3(2H)-yl)methyl)iperazin-1-yl)-1-cyclopropyl-6-fluoro-4-oxo-1,4-dihydroquinoline-3-carboxylic acid as an anti-inflammatory compound” (KING FAISAL UNIVERSITY, priority 2023, dated 2024)

Assays:
[1] = molecular target: Bovine Serum Albumin (BSA) (Bos taurus, UniProt P02769); test: Bovine Serum Albumin Assay (BSA), inhibition of protein denaturation; assay type: biochemical; settings: dilutions of 20, 40, 60, 80, and 100 μg/mL; 0.4% w/v BSA, pH 6.4; 72° C. for 10 minutes; turbidity at 660 nm
Protocol: Bovine Serum Albumin Assay (BSA)
In vitro-inflammatory activities of the tested samples were determined using a modified method of the BSA assay reported by Williams et al. BSA solution (0.4%, w/v) was prepared in Tris Buffered Saline. The pH was adjusted to 6.4 with glacial acetic acid. Different dilutions of 20, 40, 60, 80, and 100 μg/mL of 7-(4-((5-(4-chlorobenzylideneamino)-2-thioxo-1,3,4-thiadiazol-3(2H)-yl)methyl)piperazin-1-yl)-1-cyclopropyl-6-fluoro-4-oxo-1,4-dihydroquinoline-3-carboxylic acid (IV) the stock solutions were added to test tubes containing 1 mL of 0.4%, w/v BSA buffer solution. Both negative (solvent) and positive (aspirin) controls were assayed in a similar manner. The solutions were then heated in a water bath at 72° C. for 10 minutes, and cooled for 20 minutes under laboratory conditions. The turbidity of the solutions (level of protein precipitation) was measured at 660 nm in Spectrophotometer (V-770 UV-Visible/NIR Spectrophotometer). The percentage inhibition of precipitation (protein denaturation) was determined relative to the negative control using the following equation:
[formula] % Anti-Denaturation Activity=% Inhibition of Protein Denaturation=% Anti-inflammatory Activity

Bovine Serum Albumin (BSA), sequence (P02769 25-607): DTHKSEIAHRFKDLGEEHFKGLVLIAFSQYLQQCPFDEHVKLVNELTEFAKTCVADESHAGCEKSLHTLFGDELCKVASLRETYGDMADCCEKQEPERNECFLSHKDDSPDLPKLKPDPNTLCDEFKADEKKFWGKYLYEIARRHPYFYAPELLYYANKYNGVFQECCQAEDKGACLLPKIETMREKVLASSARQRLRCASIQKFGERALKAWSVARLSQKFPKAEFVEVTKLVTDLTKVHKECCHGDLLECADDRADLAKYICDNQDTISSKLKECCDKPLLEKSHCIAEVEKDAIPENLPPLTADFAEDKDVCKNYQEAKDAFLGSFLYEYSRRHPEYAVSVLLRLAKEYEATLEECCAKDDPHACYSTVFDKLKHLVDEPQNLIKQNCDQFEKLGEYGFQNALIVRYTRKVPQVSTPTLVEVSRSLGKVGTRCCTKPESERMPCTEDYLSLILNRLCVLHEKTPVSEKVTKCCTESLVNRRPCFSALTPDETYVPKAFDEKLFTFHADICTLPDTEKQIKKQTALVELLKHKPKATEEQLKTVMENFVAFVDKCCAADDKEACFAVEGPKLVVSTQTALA

in vitro anti-inflammatory activity (inhibition of protein denaturation) [1]: considerable anti-inflammatory effect | melting point: 221 to 223 °C
SMILES: O=C(O)c1cn(C2CC2)c2cc(N3CCN(Cn4nc(/N=C/c5ccc(Cl)cc5)sc4=S)CC3)c(F)cc2c1=O [IV, 7-(4-((5-(4-chlorobenzylideneamino)-2-thioxo-1,3,4-thiadiazol-3(2H)-yl)methyl)piperazin-1-yl)-1-cyclopropyl-6-fluoro-4-oxo-1,4-dihydroquinoline-3-carboxylic acid]
